Test results from US20230405031A1, “METHODS AND COMPOSITIONS RELATED TO RECEPTOR-MEDIATED GLUCOSE SENSING” (Ohio State Innovation Foundation, priority 2020, published 2023).

Legend:
ERK2 phosphorylation = ERK2 phosphorylation in gastrocnemius after intramuscular injection of STR ligands; format: in vivo; settings: intra-muscular injection, anesthetized mice after overnight fast, WT vs T1R2-KO, vs vehicle in contralateral muscle
Method: FIGS. 8A-8E show STR signaling involves ERK2 and SIRT1 activation. (8A) ERK1/2 phosphorylation in gastrocnemius from fed mice. Quantitation includes both ERK1 and ERK2 bands (n=6/group). (8B-8C) ERK2 phosphorylation in response to bilateral intramuscular injection of either sucralose or 3-OMG (right gastroc) or vehicle (left gastroc) in anesthetized mice after an overnight fast (n=8/group). (8D) NAD levels in C2C12 cells culture in high (black dots) or low (blue dots) glucose for 54 h. In select cells, equal molarity (20 mM) of glucose (Glu) or 3-OMG was added during the last 6 h (ANOVA). (8E) PGC1a acetylation in gastrocnemius from 5 hours fasted mice using immunoprecipitation (IP) with anti-PGC1a (Millipore ST1202) and then immunoblotting (IB) with anti-PGC1a and anti-acetyl-lysine (CST #9441). IB of PGC1a is shown in input. Student's T-test, p value. Elucidation of signaling pathway leading to PARP1 regulation and NAD^+ bioavailability. The reduced PARP1 activity in T1R2-KO muscles correlates with substantial increases in NAD^+ levels (FIGS. 2C and 3B). STR belong to the Gq family of GPCRs and, in various tissues, activate phospholipase C (PLC)-mediated signaling cascades (9, 62) (FIG. 7). PARP1 is mainly regulated in response to DNA damage (63), but it was reasoned that a downstream effector(s) of PLC-dependent pathway may regulate PARP1 in skeletal muscle. […]

C2C12 cells = experiment: NAD levels in differentiated C2C12 cells cultured at high or low glucose; format: cell-based; settings: 20 mM added during the last 6 h to low-glucose (5 mM) cultured differentiated C2C12 cells, 54 h culture
Method: FIGS. 8A-8E show STR signaling involves ERK2 and SIRT1 activation. (8A) ERK1/2 phosphorylation in gastrocnemius from fed mice. Quantitation includes both ERK1 and ERK2 bands (n=6/group). (8B-8C) ERK2 phosphorylation in response to bilateral intramuscular injection of either sucralose or 3-OMG (right gastroc) or vehicle (left gastroc) in anesthetized mice after an overnight fast (n=8/group). (8D) NAD levels in C2C12 cells culture in high (black dots) or low (blue dots) glucose for 54 h. In select cells, equal molarity (20 mM) of glucose (Glu) or 3-OMG was added during the last 6 h (ANOVA). (8E) PGC1a acetylation in gastrocnemius from 5 hours fasted mice using immunoprecipitation (IP) with anti-PGC1a (Millipore ST1202) and then immunoblotting (IB) with anti-PGC1a and anti-acetyl-lysine (CST #9441). IB of PGC1a is shown in input. Student's T-test, p value. Determination of downstream effectors of NAD^+-SIRT axis. To shed light on the link between STR activation and NAD regulation, differentiated C2C12 cells were cultured at high (25 mM) or low (5 mM) glucose for 54 hours and observed an anticipated increase in NAD levels during the low-glucose condition (FIG. 8D) (18, 69). […] Thus, it appears that a STR-mediated regulation of NAD^+-SIRT axis is sufficient to account for key muscle adaptations in T1R2-KO mice. […]

SIRT1 = target: T1, SIRT1 (Homo sapiens, UniProt Q96EB6); settings: read-out: Km (affinity for NAD+); cited from earlier work
T1 sequence (Q96EB6 1-747): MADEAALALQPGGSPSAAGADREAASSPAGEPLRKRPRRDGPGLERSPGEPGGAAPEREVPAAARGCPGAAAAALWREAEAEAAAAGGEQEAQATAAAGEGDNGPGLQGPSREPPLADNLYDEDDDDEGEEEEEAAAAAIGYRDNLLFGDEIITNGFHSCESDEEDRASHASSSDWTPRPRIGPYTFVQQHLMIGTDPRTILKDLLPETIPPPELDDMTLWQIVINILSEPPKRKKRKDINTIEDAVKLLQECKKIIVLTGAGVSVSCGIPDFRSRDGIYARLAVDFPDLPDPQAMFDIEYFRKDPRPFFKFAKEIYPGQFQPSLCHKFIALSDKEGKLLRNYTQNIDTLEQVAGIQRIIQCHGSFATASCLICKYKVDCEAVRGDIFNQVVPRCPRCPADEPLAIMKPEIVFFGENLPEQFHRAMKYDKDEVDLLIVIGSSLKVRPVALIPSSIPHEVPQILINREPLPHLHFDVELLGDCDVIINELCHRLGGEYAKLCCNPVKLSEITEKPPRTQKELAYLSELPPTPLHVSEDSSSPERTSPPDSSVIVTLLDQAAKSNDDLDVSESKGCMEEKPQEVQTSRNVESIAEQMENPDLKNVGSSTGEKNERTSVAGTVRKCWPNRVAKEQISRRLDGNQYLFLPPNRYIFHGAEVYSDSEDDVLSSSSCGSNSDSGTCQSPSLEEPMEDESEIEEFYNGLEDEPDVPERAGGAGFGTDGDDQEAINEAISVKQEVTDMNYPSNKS

SIRT2 = target: T2, SIRT2 (Homo sapiens, UniProt Q8IXJ6); settings: read-out: Km (affinity for NAD+); cited from earlier work
T2 sequence (Q8IXJ6 1-389): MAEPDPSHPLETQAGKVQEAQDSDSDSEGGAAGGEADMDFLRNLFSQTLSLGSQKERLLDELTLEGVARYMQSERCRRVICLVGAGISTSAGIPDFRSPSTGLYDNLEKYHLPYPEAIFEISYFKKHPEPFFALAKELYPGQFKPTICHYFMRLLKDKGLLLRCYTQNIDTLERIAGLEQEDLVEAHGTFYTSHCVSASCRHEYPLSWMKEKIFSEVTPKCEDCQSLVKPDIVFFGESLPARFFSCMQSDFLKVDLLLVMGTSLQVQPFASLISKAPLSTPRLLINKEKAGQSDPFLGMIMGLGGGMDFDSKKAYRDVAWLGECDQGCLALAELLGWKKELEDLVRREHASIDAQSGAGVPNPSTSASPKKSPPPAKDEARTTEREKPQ

muscle fibers = experiment: Oxygen flux in permeabilized muscle fibers (high resolution respirometry); design: species or system mice; settings: after malate+pyruvate and ADP, data not shown
Text: FIGS. 4A-4H show STRs regulate mitochondrial function and exercise capacity. (4A) Oxygen flux in muscle fibers in response to malate+pyruvate and ADP. […] (4B) Oxygen consumption rate (OCR) in differentiated myoblasts. Oligomycin (Comp V inhibition), FCCP (Carbonyl cyanide-4 (trifluoromethoxy) phenylhydrazone; uncoupler), rotenone (Comp I inhibition) (n=5/group). (4C) Quantitative analysis of lactate, ATP and ADP in gastrocnemius following 5-hours fasting (n=9-11/group). (4D) Succinate dehydrogenase staining in muscle sections. Arrows show SDH staining in gastrocnemius n=6/group). (4E) Immunoblotting of mitochondrial complex proteins with quantitation (n=6/group). (4F) Exercise endurance in mice at […] grade and 20 m/min (n=8/group). (4G) Oxygen consumption and (4H) respiratory exchange ratio (RER) under steady state conditions (plateaued values for at least 10 min) before exhaustion in mice subjected to a submaximal exercise bout as in (4F). Student's t-test, p value for (4B-4H).
ADPr is converted to PRPP, which can be used either for NAD^+ regeneration (salvage pathway), or for nucleotide synthesis (FIG. 2F), showing that ADPr can be a metabolic link between NAD^+ and purine/pyrimidine metabolism. Therefore, it was reasoned that the unprecedented depletion of ADPr in T1R2-KO muscles can be due to reduced NAD-consumption and/or increased PRPP utilization for nucleotide biosynthesis. […]

**Q.** For `CO[C@@H]([C@H](O)[C@H](O)CO)[C@@H](O)C=O` [3-OMG, 3-O-methylglucose], which ERK2 phosphorylation (ERK2 phosphorylation) is on record?
**A.** Its ERK2 phosphorylation is “activated ERK2 phosphorylation in WT, but not in T1R2-KO muscles”.

**Q.** What about the NAD levels (C2C12 cells) of the same molecule?
**A.** Its NAD levels is “caused a significant drop in NAD, although to a lesser extent than 20 mM glucose”.

**Q.** What does the source list for `NC(=O)c1ccc[n+]([C@@H]2O[C@H](COP(=O)([O-])OP(=O)(O)OC[C@H]3O[C@@H](n4cnc5c(N)ncnc54)[C@H](O)[C@@H]3O)[C@@H](O)[C@H]2O)c1` [NAD^+, Nicotinamide adenine dinucleotide]?
**A.** Km (SIRT1): 95 µM; Km (SIRT2): 83 µM

**Q.** For `OC[C@H]1O[C@H](O[C@]2(CCl)O[C@H](CCl)[C@@H](O)[C@@H]2O)[C@H](O)[C@@H](O)[C@H]1Cl` [sucralose], which ERK2 phosphorylation (ERK2 phosphorylation) is on record?
**A.** Its ERK2 phosphorylation is “activated ERK2 phosphorylation in WT, but not in T1R2-KO muscles”.

**Q.** For antimycin A, which Oxygen flux (muscle fibers) is on record?
**A.** Its Oxygen flux is “suppressed oxygen flux”.
